Activity calls are given as the source filed them. No rule for the calls is given here.

In the experiment the target is Serine/threonine-protein kinase mTOR (Homo sapiens) (UniProt P42345). As to the kind of experiment: mTOR FRB domain ligand binding – biophysical, NMR (AID 1648). The following applies: NMR binding to FRB domain, chemical shift.
Serine/threonine-protein kinase mTOR (Homo sapiens), sequence (P42345 2015-2114): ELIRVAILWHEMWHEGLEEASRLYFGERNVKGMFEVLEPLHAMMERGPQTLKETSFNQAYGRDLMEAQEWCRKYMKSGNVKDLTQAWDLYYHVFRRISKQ
On to `Cc1nnc(N2CCN(Cc3ccccc3)CC2)[nH]c1=O`, for which the Kd is > 4 mM (inactive).
To `CC1=CC2C(CC1=O)C(C)=CCC2C(C)C` (stereo unspecified) belongs > 4 mM (inactive); to `O=C(Nc1nncs1)C1(c2ccccc2)CCCC1`, > 4 mM (inactive); to `OCc1ccc(OC(F)(F)F)cc1`, > 4 mM (inactive).
On to `Nc1cc(=O)[nH]c(SCC(=O)NC2CCCCC2)n1`, for which the Kd is > 4 mM (inactive).
As to `O=C1c2ccccc2C(=O)N1/N=C/c1ccc[nH]1`, the Kd was > 4 mM (inactive).
The same measure for `CC(=O)C1CCC2C3CCC4C[C@H](O)CCC4(C)C3C[C@H](O)C12C` (stereo partly specified): > 4 mM (inactive).
To `OCC1CCN(c2ncccn2)CC1` belongs > 4 mM (inactive); to `CCN(CC)S(=O)(=O)c1ccc(F)cc1`, > 4 mM (inactive).
To `O=c1c(O)cccc2cc(O)c(O)c(O)c12` belongs > 4 mM (inactive); to `NC(=O)CSc1ccc2nnc(-c3cccs3)n2n1`, > 4 mM (inactive).
In the case of `Cc1c(N=CN(C)C)c(=O)n(-c2ccccc2)n1C`, the Kd was > 4 mM (inactive).
The same measure for `COc1cc(OC)c(-c2c(OC)cc(OC)cc2OC)c(OC)c1`: > 4 mM (inactive); for `O=C(NCc1cccs1)c1nn2cccnc2c1Cl`: > 4 mM (inactive).
To `NC1CS(=O)(=O)CC1O` (stereo unspecified) belongs > 4 mM (inactive).
As for `S=c1ccc(N2CCCCC2)n[nH]1`, the Kd is > 4 mM (inactive).
The same measure for `CN1CCN(CC(=O)Nc2ccccc2)CC1`: > 4 mM (inactive); for `Cc1nc2c(n1O)CCc1c-2no[n+]1[O-]`: > 4 mM (inactive); for `S=c1nc2c(n[nH]1)[nH]c1ccccc12`: > 4 mM (inactive).
The same measure for `Nc1ccc2c(c1)CCCC2=O`: > 4 mM (inactive).
The same measure for `Nc1ccc(F)cc1F`: > 4 mM (inactive); for `Cc1ccc2nc(SCC(=O)O)nc(C)c2c1`: > 4 mM (inactive); for `CN(C)Cc1c(N)cccc1O`: > 4 mM (inactive).
`CNC(=O)C(=O)Nc1cccc(Cl)c1`: the Kd is > 4 mM (inactive).
The same measure for `CC(=O)O[C@@H]1CC2C(C)(C)[C@H](O)CC[C@]2(C)C2CC[C@@]3(C)[C@H](c4ccoc4)OC(=O)C4OC43[C@@]21C` (stereo partly specified): > 4 mM (inactive); for `[O-][n+]1onc2c1CCc1c-2nn(-c2ccccc2)[n+]1[O-]`: > 4 mM (inactive).
To `N=C1/C(=C\c2ccco2)C(=O)N=C2SC=NN12` belongs > 4 mM (inactive); to `O=c1[nH]c2sc3c(c2c2nncn12)CCCC3`, > 4 mM (inactive); to `O=C1N=c2ccccc2=C1c1[nH]c(=S)[nH]c1O`, > 4 mM (inactive).
The same measure for `CS(=O)(=O)Nc1ccccc1C(=O)c1ccccc1`: > 4 mM (inactive); for `CC(=O)O[C@H]1C(=O)[C@@]2(C)C([C@H](OC(=O)c3ccccc3)[C@]3(O)C[C@H](OC(=O)[C@H](O)[C@@H](NC(=O)c4ccccc4)c4ccccc4)C(C)=C1C3(C)C)[C@]1(OC(C)=O)CO[C@@H]1C[C@@H]2O` (stereo partly specified): > 4 mM (inactive).
On to `CC(=O)O[C@@H]1CC2C(C)(C)C(=O)C3OC3[C@]2(C)C2CC[C@@]3(C)[C@H](c4ccoc4)OC(=O)C4OC43[C@@]21C` (stereo partly specified), for which the Kd was > 4 mM (inactive).
To `O=C(O)c1cccc2c1OCCO2` belongs > 4 mM (inactive); to `Cc1[nH]c2ccccc2c(=O)c1CO`, > 4 mM (inactive).
In the case of `O=C(O)c1cn(-c2ccccc2)nc1-c1cccnc1`, the Kd is > 4 mM (inactive).
The same measure for `Cc1noc(-c2ccccc2)c1CO`: > 4 mM (inactive); for `O=C(O)c1csc(-c2cccnc2)n1`: > 4 mM (inactive).
Take `O=C1C[C@@H](c2ccccc2)Oc2cc(O)cc(O)c21`: the Kd was > 4 mM (inactive).
To `O=C(O)CCC(=O)Nc1ccccc1F` belongs > 4 mM (inactive); to `CC(=O)c1sc2nc(N)nn2c1C`, > 4 mM (inactive); to `NC(=O)c1ccsc1N`, > 4 mM (inactive).
To `CN(C)C(=S)Nc1ccccc1N1CCOCC1` belongs > 4 mM (inactive).
To `Cc1occc1C(=O)Nc1sccc1C(N)=O` belongs > 4 mM (inactive); to `Cc1cc(C)nc(N(C#N)Cc2ccccc2)n1`, > 4 mM (inactive).
As to `COC(=O)c1sc(N)nc1C`, the Kd was > 4 mM (inactive).
The same measure for `O=C(CC1NC(=O)NC1=O)Nc1ccccc1` (stereo unspecified): > 4 mM (inactive); for `COCC(=O)OCn1nnc2ccccc2c1=O`: > 4 mM (inactive).
In the case of `COc1cc(OC)c2c(=O)c(OC)c(-c3ccc(OC)c(OC)c3)oc2c1`, the Kd was > 4 mM (inactive).
The same measure for `O=C(c1ccco1)N1CCCN(C(=O)c2ccco2)CC1`: > 4 mM (inactive); for `CC(=O)NCc1nc2ccccc2[nH]1`: > 4 mM (inactive); for `CCOc1ccc(Cl)cc1S(=O)(=O)N1CCCC1`: > 4 mM (inactive).
To `CNc1nc(N)c(C(=O)C(C)(C)C)s1` belongs > 4 mM (inactive); to `COc1ccc2c(c1)OCC(Cc1ccc(OC)c(O)c1)C2=O` (stereo unspecified), > 4 mM (inactive).
The same measure for `Nc1ncnc(NCCO)c1[N+](=O)[O-]`: > 4 mM (inactive); for `CC[C@H](CCC(C)[C@H]1CCC2C3CCC4C[C@@H](O)CC[C@]4(C)C3CC[C@@]21C)C(C)C` (stereo partly specified): > 4 mM (inactive).
For `CC(C(N)=O)N1C(=O)c2ccccc2C1=O` (stereo unspecified), the Kd is > 4 mM (inactive).
As for `CC(C)c1ccc2c(c1)CCC1[C@](C)(CN)CCC[C@]21C` (stereo partly specified), the Kd is > 4 mM (inactive).
The same measure for `O=S(=O)(c1cccc(Cl)c1)N1CCCC1`: > 4 mM (inactive).
To `Cc1nc(-c2ccc(C(=O)O)s2)cs1` belongs > 4 mM (inactive).
To `C/C=C(\C)C(=O)O[C@@H]1c2c(ccc3ccc(=O)oc23)OC(C)(C)[C@@H]1OC(C)=O` belongs > 4 mM (inactive).
As for `CC1=CC2C(C(C)C)CCC(C)(O)C2CC1` (stereo unspecified), the Kd is > 4 mM (inactive).
On to `O=c1c(-c2ccccc2)coc2cc(O)cc(O)c12`, for which the Kd was > 4 mM (inactive).
To `O=C(c1ccc(Cl)c(F)c1F)N1CCCC1` belongs > 4 mM (inactive); to `CC(=O)NC(O)C(=O)c1ccccc1` (stereo unspecified), > 4 mM (inactive); to `CN1C(=O)N(C)C2NC(=O)NC21` (stereo unspecified), > 4 mM (inactive).
Regarding `CC(=O)O[C@@H]1CC2C(C)(C)[C@H](O)C[C@H](O)[C@]2(C)C2CC[C@@]3(C)C(=CC(=O)O[C@H]3c3ccoc3)[C@@]21C` (stereo partly specified), the Kd is > 4 mM (inactive).
To `O=c1[nH]cc(NCc2ccco2)c(=O)[nH]1` belongs > 4 mM (inactive); to `Cn1cc(Cl)c(C(=O)Nc2ccc(F)cc2F)n1`, > 4 mM (inactive).
To `O=C(O)c1scc2c1CCCC2` belongs > 4 mM (inactive); to `Cc1nc(SCC#N)c2c3c(sc2n1)CCC3`, > 4 mM (inactive).
To `O=C1CCC(=O)N1c1cccc([N+](=O)[O-])c1` belongs > 4 mM (inactive); to `Cc1ccccc1NC(=O)N1CCOCC1`, > 4 mM (inactive).
On to `c1nnc2c3c4c(sc3ncn12)CCCC4`, for which the Kd was > 4 mM (inactive).
The same measure for `c1cncc(C2CCCCN2)c1` (stereo unspecified): > 4 mM (inactive); for `OCc1ccc(N2CCOCC2)nc1`: > 4 mM (inactive).
For `CCN1C[C@@]2(COC)C3[C@@H](OC)[C@H]4[C@@H]1[C@]3(C(OC)C[C@H]2O)C1C[C@@]2(O)[C@H](OC(=O)c3ccccc3)C1[C@]4(OC(C)=O)[C@@H](O)[C@@H]2OC` (stereo partly specified), the Kd is > 4 mM (inactive).
To `O=C(O)/C=C(\CC(=O)O)C(=O)O` belongs > 4 mM (inactive); to `Cc1nc2[nH]onc2c2nccc(=O)c12`, > 4 mM (inactive); to `O=CN1CCN(C(=O)c2ccccc2F)CC1`, > 4 mM (inactive).
The same measure for `CNC(=O)Cn1c(=O)n(C)c2ccccc21`: > 4 mM (inactive); for `CC(C)=CCC/C(C)=C/CC/C(C)=C/CC/C(C)=C/CC/C(C)=C/CC/C(C)=C/CC/C(C)=C/CC/C(C)=C/CC/C(C)=C/CO`: > 4 mM (inactive); for `CS(=O)(=O)N1CCN(c2ncccn2)CC1`: > 4 mM (inactive).
The same measure for `COc1ccc(-c2nc(N)n(C(C)=O)n2)cc1`: > 4 mM (inactive).
Take `CN1C(CC(=O)c2ccccc2)CCCC1CC(O)c1ccccc1` (stereo unspecified): the Kd was > 4 mM (inactive).
The same measure for `Clc1ccc(SCCn2cncn2)cc1`: > 4 mM (inactive).
To `CNC(=S)Nc1ccc(OC)cc1C` belongs > 4 mM (inactive); to `Cc1n[nH]c(=S)n1-c1ccc(C(=O)O)cc1`, > 4 mM (inactive).
The same measure for `OC12C=CC(CC1)CC2`: > 4 mM (inactive); for `CS(=O)(=O)Nc1ccc(C(=O)N2CCCCC2)cc1`: > 4 mM (inactive).
Turning to `N[C@@H](C(=O)O)[C@@H](O)[C@H](O)[C@H](O)CO`, the Kd is > 4 mM (inactive).
The same measure for `CCCCN1C(=O)N(C)C2NC(=O)NC21` (stereo unspecified): > 4 mM (inactive).
`Cc1cc(N)n(C2CCOC(C)(C)C2)n1` (stereo unspecified): the Kd was > 4 mM (inactive).
Regarding `COCC(=O)Nc1c(C(N)=O)oc2ccccc12`, the Kd is > 4 mM (inactive).
To `COC(=O)CSc1ncnc2c(C)csc12` belongs > 4 mM (inactive).
To `O=C(NC(=O)N1CCOCC1)c1ccccc1` belongs > 4 mM (inactive); to `COc1cc(S(=O)(=O)Nc2cccnc2)ccc1F`, > 4 mM (inactive); to `NC(=O)CS(=O)(=O)c1ccc2ccccc2c1`, > 4 mM (inactive).
To `Cc1onc(-c2ccccc2)c1CO` belongs > 4 mM (inactive); to `CC(=O)NC1(NC(C)=O)CCN(C)CC1`, > 4 mM (inactive); to `O=C(O)c1ccc(-c2cccs2)cc1`, > 4 mM (inactive).
In the case of `Cc1noc(C)c1C(=O)Nc1ccc2c(c1)CCC2`, the Kd was > 4 mM (inactive).

The values above are taken from PubChem BioAssay AID1648 (Sanford-Burnham Center for Chemical Genomics, 2009).
